“And” between values parts separate entries of the source, which are not always exact repeats. Identical values can stand only once.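 Briefly, cells in 96-well plates were exposed to five compound concentrations for 48 h, and endpoints were estimated by linear interpolation. The concentration for full growth arrest is given as TGI.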
Key:
Assay in all cases: NCI anticancer screen, dose series, 48 h
RXF 393 renal = tested on: RXF 393 renal
NCI-H522 lung = tested on: NCI-H522 lung
OVCAR-8 ovarian = tested on: OVCAR-8 ovarian
A498 renal = tested on: A498 renal
SF-539 CNS = tested on: SF-539 CNS
HL-60(TB) leukemia = tested on: HL-60(TB) leukemia
SF-268 CNS = tested on: SF-268 CNS
T-47D breast = tested on: T-47D breast
SW-620 colon = tested on: SW-620 colon
ACHN renal = tested on: ACHN renal
IGROV1 ovarian = tested on: IGROV1 ovarian
OVCAR-4 ovarian = tested on: OVCAR-4 ovarian
CCRF-CEM leukemia = tested on: CCRF-CEM leukemia
MCF7 breast = tested on: MCF7 breast
CAKI-1 renal = tested on: CAKI-1 renal
MDA-N = tested on: MDA-N
MDA-MB-435 = tested on: MDA-MB-435
UACC-257 melanoma = tested on: UACC-257 melanoma
UO-31 renal = tested on: UO-31 renal
HOP-92 NSCLC = tested on: HOP-92 NSCLC

SMILES | TGI (RXF 393 renal) [µM] | TGI (NCI-H522 lung) [µM] | TGI (OVCAR-8 ovarian) [µM] | TGI (A498 renal) [µM] | TGI (SF-539 CNS) [µM] | TGI (HL-60(TB) leukemia) [µM] | TGI (SF-268 CNS) [µM] | TGI (T-47D breast) [µM] | TGI (SW-620 colon) [µM] | TGI (ACHN renal) [µM] | TGI (IGROV1 ovarian) [µM] | TGI (OVCAR-4 ovarian) | TGI (CCRF-CEM leukemia) [µM] | TGI (MCF7 breast) [µM] | TGI (CAKI-1 renal) [µM] | TGI (MDA-N) [µM] | TGI (MDA-MB-435) [µM] | TGI (UACC-257 melanoma) [µM] | TGI (UO-31 renal) [µM] | TGI (HOP-92 NSCLC) [µM]
COc1cccc(C2c3cc4c(cc3OC(C)(N3CCCC3)C2C)OCO4)c1 (centres undefined) | 51.9 | 5.7 | 64.1 | 85.3 | 37.2 | > 100 | > 100 | 64 | > 100 | 82.3 | 37.9 | 75 µM | > 100 | 45.7 | 59.8 | 4.02 | 32.9 | 70 | 39.9 | 42.2
CCOC(=O)/C=C(\C(=O)OCC)n1ccc(=O)n(Cc2cn(CCCCOC(C)=O)nn2)c1=O | 47.4 | 4.03 | 20.1 | 32 | 5.65 | 1.25 | 36.9 | > 41 | 8.38 | 11.4 | 43 | 48.2 µM | 4.59 | 23.8 | 8.57 | 42.6 | 18.1 | 32.9 | 28.6 | 5.15
O=C1NC(N/N=C\C(O)C(O)C(O)C(O)CO)=N/C1=C/c1ccc(Cl)cc1 (centres undefined) | > 100 | > 100 | > 100 | > 100 | > 100 | > 100 | > 100 | > 100 | > 100 | > 100 | > 100 | > 100 µM and 50.7 µM | > 100 | > 100 | > 100 | > 100 | > 100 | > 100 | > 100 | > 100
COc1ccc2c(C(=O)c3cn(CCN4CCOCC4)c4ccccc34)cccc2c1 | > 100 | > 100 | > 100 | > 100 | > 100 | 54.3 | > 100 | > 100 | > 100 | > 100 | > 100 | > 100 µM | 85.5 | > 80.2 | > 100 | > 100 | > 100 | > 100 | > 100 | > 100
CCOC(=O)Cc1ccc(Nc2nc3ccccc3nc2C(=O)OCC)cc1 | 74.4 | > 100 | > 100 | 86.7 | > 100 | > 100 | > 100 | > 100 | > 100 | > 100 | > 100 | > 100 µM | > 100 | > 100 | > 100 | > 100 | > 100 | > 100 | 41.3 | > 100
CC(Oc1ccc(Cl)cc1Cl)C(=O)NN1C(=O)CSC1c1ccccc1 (centres undefined) | > 100 | > 100 | > 100 | > 100 | > 100 | 77.9 | > 100 | > 100 | > 100 | > 100 | > 100 | > 100 µM | > 100 | > 100 | 40 | > 100 | > 100 | > 100 | > 100 | 83.8
COc1ccc(-c2cc3ccccc3oc2=O)cc1OC | > 100 | > 100 | > 100 | > 100 | > 100 | > 100 | > 100 | > 100 | > 100 | > 100 | > 100 | > 100 µM | > 100 | > 100 | > 100 | > 100 | > 100 | > 100 | > 100 | > 100
O=C(CC(C(=O)c1ccsc1)c1ccccc1)c1ccccc1 (centres undefined) | > 100 | > 100 | > 100 | > 100 | > 100 | 23 | > 100 | > 100 | > 100 | > 100 | > 100 | 75.9 µM | > 100 | > 100 | > 100 | > 100 | > 100 | > 100 | > 100 | > 100
COc1ccc(N=NC(=O)NC(CC(C)C)C(=O)NC(C)C(=O)O)cc1 (centres undefined) | > 100 | > 100 | > 100 | > 100 | 14.4 | > 100 | > 100 | > 45.3 | > 100 | > 100 | > 100 | > 100 µM | > 100 | > 100 | > 100 | > 100 | > 100 | > 100 | > 26.6 | > 100
CCOC(=O)c1nc2cc(F)c(N3CCOCC3)cc2[nH]c1=O | > 100 | > 100 | > 100 | > 100 | > 100 | > 100 | > 100 | > 100 | > 100 | > 100 | > 100 | > 100 µM | > 100 | > 100 | > 100 | > 100 | > 100 | > 100 | > 100 | > 100
Cc1ncc([N+](=O)[O-])n1CCNCCCCn1ccnc1[N+](=O)[O-] | > 100 | > 100 | > 100 | > 100 | > 100 | > 100 | > 100 | > 100 | > 100 | > 100 | > 100 | > 100 µM | > 100 | > 100 | > 100 | > 100 | > 100 | > 100 | > 100 | > 100
O=C(O)CCSC(CC1(c2ccc(Cl)cc2)NC(=O)CCS1)c1ccccc1 (centres undefined) | > 54.8 | 41.7 | 39.5 | 42.9 | 27.3 | > 100 | 38.4 | > 60 | 41.7 | > 59.4 | 31.7 | 29.3 µM | 24.8 | > 55.3 | 37.3 | 31.8 | 29.8 | 49.1 | > 54.8 | 62.2
COc1cccc2nc3c(C(=O)NCCN(C)C)cccc3cc12 | 9.74 | 3.42 | 3.07 | 2.98 | 7.9 | 4.48 | 15.5 | 16.7 | 4.83 | 2.85 | 11 | 4.8 µM | 61.3 | 8 | 4.18 | 8.42 | 9.41 | 5.01 | 2.99 | 11.2
CC1C=CN(N(C)C)C2=C1C(=O)c1cnccc1C2=O (centres undefined) | 1.46 | 0.55 | 3.67 | 2.66 | 1.26 | 4.66 | 5.21 | 4.33 | 1.83 | 1.06 | 1.07 | 2.03 µM | 5.01 | 0.986 | 0.597 | 0.278 | 0.43 | 0.75 | 0.39 | 3.87
O=C(N(O)c1ccccc1Cl)C(O)(c1ccccc1)c1ccccc1 | > 100 | > 100 | > 100 | > 100 | > 100 | 64.7 | > 100 | > 100 | > 100 | > 100 | > 100 | > 100 µM | 41 | > 100 | > 100 | > 100 | > 100 | > 100 | 57.9 | > 100
CC1OC(OC2C(OC(=O)[C@]34CCC(C)(C)C[C@H]3C3=CC[C@@H]5[C@@]6(C)CC[C@H](OC7OC(CO)C(O)C(O)C7OC7OC(CO)C(O)C(O)C7O)C(C)(C)[C@@H]6CC[C@@]5(C)[C@]3(C)CC4)OCC(O)C2O)C(O)C(OC2OCC(O)C(O)C2O)C1OC1OCC(O)C(OC2OCC(O)C(O)C2O)C1O (some centres undefined) | 55.5 | 9.56 | > 83.2 | 5.11 | > 100 | 10.8 | 33.1 | 51.8 | > 55.6 | 25.9 | > 67.4 | > 61.6 µM | > 100 | 58.3 | 21.8 | 5.77 | 5.6 | 13.9 | 4.98 | 20.2
Cc1c2cccc-2c(OCCO)cc2c3ccccc3n(C)c12 | > 100 | 4.8 | 10.1 | 24 | 5.92 | 7.19 | 25.6 | > 100 | 67.3 | 24 | 7.77 | 15.1 µM | 7.53 | 20.8 | 26.6 | 16.1 | 25.2 | 17.6 | 10.6 | 6.13
CC(C)(C)[Si](C)(C)Oc1ccc(C2CNC(=O)C23CCC(=O)N3Cc2ccccc2)cc1 (centres undefined) | 23.2 | 29.2 | 28.8 | 25.1 | 30.7 | 49.2 | 26 | 63 | 31.1 | 30.9 | 31.6 | 29.1 µM | > 100 | 17.6 | 45 | 27.3 | 29.9 | 25.7 | 32.9 | 34.6
CC1(C)OC2C(O)C(CO)OC2(C(F)F)O1 (centres undefined) | > 100 | > 100 | > 100 | > 100 | > 100 | > 100 | > 100 | > 100 | > 100 | > 100 | > 100 | > 100 µM | > 100 | > 100 | > 100 | > 100 | > 100 | > 100 | > 100 | > 100
COC(=O)/C=C\C(C#N)(C#N)N=Cc1cc(Br)cs1 | 5.38 | 2.9 | 11.1 | 32.9 | 11 | 0.12 | 16.5 | 5.07 | 2.72 | 4.93 | 14.1 | 27.1 µM | 2.38 | 4.49 | 7.53 | 6.62 | 8.34 | 7.74 | 5.01 | 4.73
CC(=O)OCC1OC(n2c(C)cc(C)c(C#N)c2=S)C(OC(C)=O)C(OC(C)=O)C1OC(C)=O (centres undefined) | > 100 | > 100 | > 100 | > 100 | > 100 | > 100 | > 100 | > 100 | – | > 100 | > 100 | > 100 µM | > 100 | > 100 | > 100 | > 100 | > 100 | > 100 | > 100 | > 100
Cc1cc(/N=C/c2ccc(F)cc2)n(-c2ccccc2)n1 | > 100 | > 100 | > 100 | > 100 | > 100 | > 100 | > 100 | > 100 | > 100 | > 100 | > 100 | > 100 µM | > 100 | > 100 | > 100 | > 100 | > 100 | > 100 | > 100 | > 100
O=C1C=C(NCCOCCO)C(=O)c2c(O)ccc(O)c21 | > 100 | 47.1 | 86.5 | > 100 | 54.6 | 40.4 | > 100 | 59.8 | 33.1 | 83 | > 100 | 33.4 µM | 76.2 | 40.1 | > 100 | 31.3 | 32.6 | 38.4 | > 100 | 51.3

Source: PubChem BioAssay (NCI)
